Data taken from article PMC11859928, “Design, Synthesis, and Antiproliferative Activity of Novel Indole/1,2,4-Triazole Hybrids as Tubulin Polymerization Inhibitors” (Pharmaceuticals, 2025).

How the values were obtained:
Test in all cases: NCI one-dose assay
Type in all cases: cell-based
A549/ATCC = conditions: Homo sapiens, Non-small cell lung cancer, read-out: Cell growth inhibition %
ACHN = conditions: Homo sapiens, Renal cancer, read-out: Cell growth inhibition %
CAKI-1 = conditions: Homo sapiens, CAKI-1, Renal cancer, read-out: Cell growth inhibition %
CCRF-CEM = conditions: Homo sapiens, Leukemia, read-out: Cell growth inhibition %
COLO 205 = conditions: Homo sapiens, COLO 205, Colon cancer, read-out: Cell growth inhibition %
DU-145 = conditions: Homo sapiens, DU-145, Prostate cancer, read-out: Cell growth inhibition %
HCT-15 = conditions: Homo sapiens, HCT-15, Colon cancer, read-out: Cell growth inhibition %
HOP-62 = conditions: Homo sapiens, HOP-62, Non-small cell lung cancer, read-out: Cell growth inhibition %
HS 578 T = conditions: Homo sapiens, Breast cancer, read-out: Cell growth inhibition %
IGROV1 = conditions: Homo sapiens, IGROV-1, IGROV1, Ovarian cancer, read-out: Cell growth inhibition %
K-562 = conditions: Homo sapiens, K562, K-562, Leukemia, read-out: Cell growth inhibition %
KM12 = conditions: Homo sapiens, KM12, Colon cancer, read-out: Cell growth inhibition %
M14 = conditions: Homo sapiens, M14, Melanoma, read-out: Cell growth inhibition %
MALME-3M = conditions: Homo sapiens, Melanoma, read-out: Cell growth inhibition %
MDA-MB-435 = conditions: Homo sapiens, MDA-MB-435, Melanoma, read-out: Cell growth inhibition %
MDA-MB-468 = conditions: Homo sapiens, MDA-MB-468, Breast cancer, read-out: Cell growth inhibition %
MOLT-4 = conditions: Homo sapiens, MOLT-4, Leukemia, read-out: Cell growth inhibition %
NCI-H226 = conditions: Homo sapiens, NCI-H226, Non-small cell lung cancer, read-out: Cell growth inhibition %
NCI-H23 = conditions: Homo sapiens, NCI-H23, Non-small cell lung cancer, read-out: Cell growth inhibition %
NCI/ADR-RES = conditions: Homo sapiens, Ovarian cancer, read-out: Cell growth inhibition %
OVCAR-3 = conditions: Homo sapiens, OVCAR-3, Ovarian cancer, read-out: Cell growth inhibition %
OVCAR-4 = conditions: Homo sapiens, OVCAR-4, Ovarian cancer, read-out: Cell growth inhibition %
OVCAR-5 = conditions: Homo sapiens, OVCAR-5, Ovarian cancer, read-out: Cell growth inhibition %
OVCAR-8 = conditions: Homo sapiens, OVCAR-8, Ovarian cancer, read-out: Cell growth inhibition %
PC-3 = conditions: Homo sapiens, PC-3, Prostate cancer, read-out: Cell growth inhibition %
RPMI-8226 = conditions: Homo sapiens, RPMI-8226, Leukemia, read-out: Cell growth inhibition %
SF-268 = conditions: Homo sapiens, SF-268, CNS cancer, read-out: Cell growth inhibition %
SF-539 = conditions: Homo sapiens, SF-539, CNS cancer, read-out: Cell growth inhibition %
SK-MEL-2 = conditions: Homo sapiens, SK-MEL-2, Melanoma, read-out: Cell growth inhibition %
SK-MEL-5 = conditions: Homo sapiens, SK-MEL-5, Melanoma, read-out: Cell growth inhibition %
SN12C = conditions: Homo sapiens, Renal cancer, read-out: Cell growth inhibition %
SNB-19 = conditions: Homo sapiens, SNB-19, CNS cancer, read-out: Cell growth inhibition %
SNB-75 = conditions: Homo sapiens, SNB-75, CNS cancer, read-out: Cell growth inhibition %
SR = conditions: Homo sapiens, Leukemia, read-out: Cell growth inhibition %
UACC-257 = conditions: Homo sapiens, UACC-257, Melanoma, read-out: Cell growth inhibition %
UACC-62 = conditions: Homo sapiens, UACC-62, Melanoma, read-out: Cell growth inhibition %

Row | Compound | inhibition at 10 µM (A549/ATCC) [%] | inhibition at 10 µM (ACHN) [%] | inhibition at 10 µM (CAKI-1) [%] | inhibition at 10 µM (CCRF-CEM) [%] | inhibition at 10 µM (COLO 205) [%] | inhibition at 10 µM (DU-145) [%] | inhibition at 10 µM (HCT-15) [%] | inhibition at 10 µM (HOP-62) [%] | inhibition at 10 µM (HS 578 T) [%] | inhibition at 10 µM (IGROV1) [%] | inhibition at 10 µM (K-562) [%] | inhibition at 10 µM (KM12) [%] | inhibition at 10 µM (M14) [%] | inhibition at 10 µM (MALME-3M) [%] | inhibition at 10 µM (MDA-MB-435) [%] | inhibition at 10 µM (MDA-MB-468) [%] | inhibition at 10 µM (MOLT-4) [%] | inhibition at 10 µM (NCI-H226) [%] | inhibition at 10 µM (NCI-H23) [%] | inhibition at 10 µM (NCI/ADR-RES) [%] | other results
1 | C=CCn1c(SC/C(=N\O)c2ccc(C)cc2)nnc1-c1c[nH]c2ccccc12 [Compound 7c, (Z)-2-((4-allyl-5-(1H-indol-3-yl)-4H-1,2,4-triazol-3-yl)thio)-1-(p-tolyl)ethanone Oxime] | 4.9 | 11.4 | 20.2 | 2.91 | -6.48 | -2.38 | 11.3 | 8.72 | 6.55 | 23.2 | 13.3 | 0.27 | 5.59 | 9.17 | -2.07 | 27.1 | 20.4 | 23.1 | 9.29 | 1.27 | inhibition at 10 µM (OVCAR-3): -6.11%; inhibition at 10 µM (OVCAR-4): 6.11%; inhibition at 10 µM (OVCAR-5): 1.32%; inhibition at 10 µM (OVCAR-8): 8.49%; inhibition at 10 µM (PC-3): 7.62%; inhibition at 10 µM (RPMI-8226): 8.76%; inhibition at 10 µM (SF-268): 3.63%; inhibition at 10 µM (SF-539): -1.42%; inhibition at 10 µM (SK-MEL-2): 1.01%; inhibition at 10 µM (SK-MEL-5): 11.1%; inhibition at 10 µM (SN12C): 11.7%; inhibition at 10 µM (SNB-19): 8.04%; inhibition at 10 µM (SNB-75): 2.58%; inhibition at 10 µM (SR): 16.5%; inhibition at 10 µM (UACC-257): -6.62%; inhibition at 10 µM (UACC-62): 30.9%
2 | C=CCn1c(SC/C(=N\O)c2ccc(Br)cc2)nnc1-c1c[nH]c2ccccc12 [Compound 7d, (Z)-2-((4-allyl-5-(1H-indol-3-yl)-4H-1,2,4-triazol-3-yl)thio)-1-(4-bromophenyl) Ethanone Oxime] | 9.17 | 17.9 | 25.8 | 26.7 | 8.25 | 6.21 | 26.9 | 0.14 | 22.1 | 30.8 | 40.8 | 8.58 | 19.2 | 4.84 | 11.5 | 42.2 | 43.7 | 33.6 | 17.9 | 6.71 | inhibition at 10 µM (OVCAR-3): -3.34%; inhibition at 10 µM (OVCAR-4): 24.5%; inhibition at 10 µM (OVCAR-5): 6.82%; inhibition at 10 µM (OVCAR-8): 18.3%; inhibition at 10 µM (PC-3): 31.6%; inhibition at 10 µM (RPMI-8226): 37.9%; inhibition at 10 µM (SF-268): 4.98%; inhibition at 10 µM (SF-539): 14%; inhibition at 10 µM (SK-MEL-2): 8.97%; inhibition at 10 µM (SK-MEL-5): 40.9%; inhibition at 10 µM (SN12C): 16.3%; inhibition at 10 µM (SNB-19): 8.36%; inhibition at 10 µM (SNB-75): 6.02%; inhibition at 10 µM (SR): 28.5%; inhibition at 10 µM (UACC-257): -1.32%; inhibition at 10 µM (UACC-62): 36.3%
3 | C=CCn1c(SC/C(=N\O)c2ccc(Cl)cc2)nnc1-c1c[nH]c2ccccc12 [Compound 7e, (Z)-2-((4-allyl-5-(1H-indol-3-yl)-4H-1,2,4-triazol-3-yl)thio)-1-(4-chlorophenyl) Ethanone Oxime] | 6.38 | 10.2 | 25.4 | 17.2 | 0.1 | 5.88 | 21.7 | 7.33 | 12.7 | 29.7 | 39.3 | 4.48 | 16 | 15.6 | 10.7 | 43.1 | 40 | 30.4 | 17.4 | 3.86 | inhibition at 10 µM (OVCAR-3): -7.49%; inhibition at 10 µM (OVCAR-4): 19.9%; inhibition at 10 µM (OVCAR-5): -2.62%; inhibition at 10 µM (OVCAR-8): 16.8%; inhibition at 10 µM (PC-3): 24.4%; inhibition at 10 µM (RPMI-8226): 29.7%; inhibition at 10 µM (SF-268): -1.1%; inhibition at 10 µM (SF-539): 5.14%; inhibition at 10 µM (SK-MEL-2): 3.64%; inhibition at 10 µM (SK-MEL-5): 27.4%; inhibition at 10 µM (SN12C): 14.9%; inhibition at 10 µM (SNB-19): 12.6%; inhibition at 10 µM (SNB-75): 4.75%; inhibition at 10 µM (SR): 12.1%; inhibition at 10 µM (UACC-257): 6.8%; inhibition at 10 µM (UACC-62): 35.8%
4 | O/N=C(\CSc1nnc(-c2c[nH]c3ccccc23)n1-c1ccccc1)c1ccccc1 [Compound 7f, (Z)-2-((5-(1H-Indol-3-yl)-4-phenyl-4H-1,2,4-triazol-3-yl)thio)-1-phenylethanone Oxime] | 46.9 | 58.4 | 48.9 | 59 | 47.1 | 40.2 | 74.8 | 15.4 | 33.3 | 41.8 | 67.6 | 59.9 | 54.2 | 23.9 | 54.9 | 64.6 | 76.1 | 56.7 | 45.8 | 44.7 | inhibition at 10 µM (OVCAR-3): 45%; inhibition at 10 µM (OVCAR-4): 62.2%; inhibition at 10 µM (OVCAR-5): 14.3%; inhibition at 10 µM (OVCAR-8): 43.2%; inhibition at 10 µM (PC-3): 75.9%; inhibition at 10 µM (RPMI-8226): 68.1%; inhibition at 10 µM (SF-268): 23.1%; inhibition at 10 µM (SF-539): 22.9%; inhibition at 10 µM (SK-MEL-2): 50.8%; inhibition at 10 µM (SK-MEL-5): 84.1%; inhibition at 10 µM (SN12C): 42.6%; inhibition at 10 µM (SNB-19): 48.5%; inhibition at 10 µM (SNB-75): 23.8%; inhibition at 10 µM (SR): 43.8%; inhibition at 10 µM (UACC-257): 20.1%; inhibition at 10 µM (UACC-62): 59.2%
